Assay results from patent publication US6517808B1, “Methods for boron delivery to mammalian tissue” (The Regents of the University of California, priority 1993, dated 2003).

What was measured:
EMT6 tumors = experiment: murine biodistribution study (boron concentration in tissues by ICP-AES); format: in vivo, BALB/c mice
Method: The concentration of boron can be determined by inductively coupled plasma atomic emission spectroscopy (ICP-AES).
All murine biodistribution studies utilized female BALB/c mice (16-20 g), with EMT6 tumors implanted in the right flank 7-10 days prior to the experiment. […] Injections of liposome emulsions (200 μl) were made in the tail vein. Prior to sacrifice, each mouse was anesthetized with halothane and bled into heparinized syringes via cardiac puncture. The blood was then placed into tared cryogenic tubes. While under anesthesia, the mice were euthanized via cervical dislocation. The tumor, liver, and spleen were dissected and also placed in tared cryogenic tubes. Blood and tissues were stored frozen until analyzed.
Biodistributions are plotted as boron concentration in micrograms of boron per gram of tissue on the Y axis and time in hours on the X axis. In general, four tissues are analyzed: tumor and blood because of their therapeutic interest, and liver and spleen because these tissues are known to competitively bind liposomes in vivo.

[1] = chemical stability of borane anions towards water / moisture; format: physicochemical
Excerpt: The cleanest reaction is observed employing [Ph3PMe][B10H10] in CH2Cl2, but the reaction can be used with several salts of [B10H10]^2− including preferably cesium. tetramethylammonium and triethylammoniuim and with other solvents such as acetonitrile and tetrahydrofuran. […] The substituted boron is indicated by a high field resonance at −43.8 ppm (relative to BF3. Et2O) which is a singlet in the proton coupled spectrum. [Ph3PMe][2-B10H9CO] may be isolated a a light tan solid in 85% yield, or the reaction mixture may be used directly in further reactions. […] [Ph3PMe]2[2-B10H9CO2H] has been confirmed by crystallographic analysis.
A very useful transformation of [2-B10H9CO]^− occurs from its reaction with azide ion in acetonitrile. The carbonyl undergoes a Curtius-type rearrangement to form the isocyanate [2-B10H9NCO]^2−, indicated by an infrared absorption at 2304 cm^−1. […] The [2-B10H9CO]^− ion therefore offers a high-yield route to the production of many boron-rich species for boron neutron capture therapy. Detailed protocols of preparing certain of these species is as follows: […]

Na2B10H10 [reference compound]
tumor uptake begins at (initial tumor boron concentration) (EMT6 tumors; FIG. 4, BALB/c mice bearing EMT6 tumors, tail vein injection): 10 µg/g

[2-B10H9CO]^−
sensitivity to moisture ([1]; in the solid state or in solution): relatively insensitive to moisture

Na3B20H17NH3 [free Na3B20H17NH3]
initial distribution (accumulation) in the tumor (EMT6 tumors; FIG. 10, free, not liposome-encapsulated, injected in buffer): about 8 ppm

[2-B10H9NCO]^2−
stability in acidic media ([1]; acidic media): rapidly hydrolyzed
stability in neutral aqueous solution ([1]; neutral aqueous solution): stable
